Results: PubChem BioAssay (NCI)
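Briefly, cells in 96-well plates were exposed to five compound concentrations for 48 h, and endpoints were estimated by linear interpolation. GI50: concentration for 50% inhibition of growth. TGI marks complete inhibition of growth.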

test system: UO-31 renal; assay: NCI-60 cell line screen, 48 h

`O=C(C[n+]1ccccc1)NNC(=O)/C(=C/c1ccc2c(c1)OCO2)NC(=O)c1ccccc1` and `O=C(CCC(=O)Nc1cccc(Cl)c1)CC(=O)c1ccc(Cl)cc1` cannot be ordered by TGI: greater than 100 µM for the first, greater than 100 µM for the second.

First: Cc1cccc(NC(=O)/C=C/c2ccc(N(CCC#N)CCC#N)cc2C)c1
Second: Nc1ccc(C(=O)NN2C(=O)C(Cl)C2c2ccccc2Cl)cc1 (configuration not stated)
The TGI of the first is higher: greater than 100 µM for the first, 30.8 µM for the second.

`Clc1ccc(-c2c(C3=NCCN3)nnn2-c2ccc(Cl)cc2)cc1` gave a TGI of 64.5 µM.

test system: NCI-H226 lung; assay: NCI-60 cell line screen, 48 h

`CC(=O)OCC1OC([S-])C(OC(C)=O)C(OC(C)=O)C1OC(C)=O.CC[PH+](CC)CC.CC[PH+](CC)CC.[Au].[Au]` (configuration not stated) showed a GI50 of 244 nM.

Compared with `CC(=O)OCC1OC([S-])C(OC(C)=O)C(OC(C)=O)C1OC(C)=O.CC[PH+](CC)CC.CC[PH+](CC)CC.[Au].[Au]` (configuration not stated), `O=C(CCC(=O)Nc1cccc(Cl)c1)CC(=O)c1ccc(Cl)cc1` is higher in TGI: 1.7 µM for the first, greater than 100 µM for the second.

First: O=C(C[n+]1ccccc1)NNC(=O)/C(=C/c1ccc2c(c1)OCO2)NC(=O)c1ccccc1
Second: Nc1ccc(C(=O)NN2C(=O)C(Cl)C2c2ccccc2Cl)cc1 (configuration not stated)
The TGI of the first is higher: greater than 92.4 µM for the first, 31.5 µM for the second.

`Cc1cccc(NC(=O)/C=C/c2ccc(N(CCC#N)CCC#N)cc2C)c1` and `Clc1ccc(-c2c(C3=NCCN3)nnn2-c2ccc(Cl)cc2)cc1` cannot be ordered by TGI: greater than 100 µM for the first, greater than 100 µM for the second.

test system: UACC-257 melanoma; assay: NCI-60 cell line screen, 48 h

`CC(=O)OCC1OC([S-])C(OC(C)=O)C(OC(C)=O)C1OC(C)=O.CC[PH+](CC)CC.CC[PH+](CC)CC.[Au].[Au]` (configuration not stated) showed a GI50 of 214 nM.

Compared with `CC(=O)OCC1OC([S-])C(OC(C)=O)C(OC(C)=O)C1OC(C)=O.CC[PH+](CC)CC.CC[PH+](CC)CC.[Au].[Au]` (configuration not stated), `O=C(CCC(=O)Nc1cccc(Cl)c1)CC(=O)c1ccc(Cl)cc1` is higher in TGI: 0.937 µM for the first, greater than 100 µM for the second.

Going from `O=C(C[n+]1ccccc1)NNC(=O)/C(=C/c1ccc2c(c1)OCO2)NC(=O)c1ccccc1` to `Nc1ccc(C(=O)NN2C(=O)C(Cl)C2c2ccccc2Cl)cc1` (configuration not stated), the TGI falls from greater than 100 µM to 26.8 µM.

Compared with `Cc1cccc(NC(=O)/C=C/c2ccc(N(CCC#N)CCC#N)cc2C)c1`, `Clc1ccc(-c2c(C3=NCCN3)nnn2-c2ccc(Cl)cc2)cc1` is lower in TGI: greater than 100 µM for the first, 33 µM for the second.

test system: LXFL 529 NSCLC; assay: NCI-60 cell line screen, 48 h

`CC(=O)OCC1OC([S-])C(OC(C)=O)C(OC(C)=O)C1OC(C)=O.CC[PH+](CC)CC.CC[PH+](CC)CC.[Au].[Au]` (configuration not stated) was tested, and the GI50 was 153 nM.

Going from `CC(=O)OCC1OC([S-])C(OC(C)=O)C(OC(C)=O)C1OC(C)=O.CC[PH+](CC)CC.CC[PH+](CC)CC.[Au].[Au]` (configuration not stated) to `O=C(CCC(=O)Nc1cccc(Cl)c1)CC(=O)c1ccc(Cl)cc1`, the TGI rises from 0.322 µM to greater than 100 µM.

Compared with `O=C(C[n+]1ccccc1)NNC(=O)/C(=C/c1ccc2c(c1)OCO2)NC(=O)c1ccccc1`, `Nc1ccc(C(=O)NN2C(=O)C(Cl)C2c2ccccc2Cl)cc1` (configuration not stated) is lower in TGI: greater than 77.2 µM for the first, 5.23 µM for the second.

Compared with `Cc1cccc(NC(=O)/C=C/c2ccc(N(CCC#N)CCC#N)cc2C)c1`, `Clc1ccc(-c2c(C3=NCCN3)nnn2-c2ccc(Cl)cc2)cc1` is lower in TGI: greater than 100 µM for the first, 95.4 µM for the second.

test system: HT29 colon; assay: NCI-60 cell line screen, 48 h

For `CC(=O)OCC1OC([S-])C(OC(C)=O)C(OC(C)=O)C1OC(C)=O.CC[PH+](CC)CC.CC[PH+](CC)CC.[Au].[Au]` (configuration not stated), the GI50 was 319 nM.

Going from `CC(=O)OCC1OC([S-])C(OC(C)=O)C(OC(C)=O)C1OC(C)=O.CC[PH+](CC)CC.CC[PH+](CC)CC.[Au].[Au]` (configuration not stated) to `O=C(CCC(=O)Nc1cccc(Cl)c1)CC(=O)c1ccc(Cl)cc1`, the TGI rises from 0.989 µM to greater than 100 µM.

First: O=C(C[n+]1ccccc1)NNC(=O)/C(=C/c1ccc2c(c1)OCO2)NC(=O)c1ccccc1
Second: Nc1ccc(C(=O)NN2C(=O)C(Cl)C2c2ccccc2Cl)cc1 (configuration not stated)
The TGI of the first is higher: greater than 100 µM for the first, 23.5 µM for the second.

First: Cc1cccc(NC(=O)/C=C/c2ccc(N(CCC#N)CCC#N)cc2C)c1
Second: Clc1ccc(-c2c(C3=NCCN3)nnn2-c2ccc(Cl)cc2)cc1
The TGI of the first is higher: greater than 100 µM for the first, 36.2 µM for the second.

test system: SF-295 CNS; assay: NCI-60 cell line screen, 48 h

For `CC(=O)OCC1OC([S-])C(OC(C)=O)C(OC(C)=O)C1OC(C)=O.CC[PH+](CC)CC.CC[PH+](CC)CC.[Au].[Au]` (configuration not stated), the GI50 was 436 nM.

Going from `CC(=O)OCC1OC([S-])C(OC(C)=O)C(OC(C)=O)C1OC(C)=O.CC[PH+](CC)CC.CC[PH+](CC)CC.[Au].[Au]` (configuration not stated) to `O=C(CCC(=O)Nc1cccc(Cl)c1)CC(=O)c1ccc(Cl)cc1`, the TGI rises from 1.63 µM to greater than 100 µM.

Going from `O=C(C[n+]1ccccc1)NNC(=O)/C(=C/c1ccc2c(c1)OCO2)NC(=O)c1ccccc1` to `Nc1ccc(C(=O)NN2C(=O)C(Cl)C2c2ccccc2Cl)cc1` (configuration not stated), the TGI falls from greater than 100 µM to 12.6 µM.

First: Cc1cccc(NC(=O)/C=C/c2ccc(N(CCC#N)CCC#N)cc2C)c1
Second: Clc1ccc(-c2c(C3=NCCN3)nnn2-c2ccc(Cl)cc2)cc1
The TGI of the first is higher: greater than 100 µM for the first, 38.9 µM for the second.

test system: KM12 colon; assay: NCI-60 cell line screen, 48 h

Molecule `CC(=O)OCC1OC([S-])C(OC(C)=O)C(OC(C)=O)C1OC(C)=O.CC[PH+](CC)CC.CC[PH+](CC)CC.[Au].[Au]` (configuration not stated) has a GI50 of 1040 nM.

Compared with `CC(=O)OCC1OC([S-])C(OC(C)=O)C(OC(C)=O)C1OC(C)=O.CC[PH+](CC)CC.CC[PH+](CC)CC.[Au].[Au]` (configuration not stated), `O=C(CCC(=O)Nc1cccc(Cl)c1)CC(=O)c1ccc(Cl)cc1` is higher in TGI: 2.66 µM for the first, greater than 100 µM for the second.

Going from `O=C(C[n+]1ccccc1)NNC(=O)/C(=C/c1ccc2c(c1)OCO2)NC(=O)c1ccccc1` to `Nc1ccc(C(=O)NN2C(=O)C(Cl)C2c2ccccc2Cl)cc1` (configuration not stated), the TGI falls from greater than 100 µM to 24.5 µM.

Going from `Cc1cccc(NC(=O)/C=C/c2ccc(N(CCC#N)CCC#N)cc2C)c1` to `Clc1ccc(-c2c(C3=NCCN3)nnn2-c2ccc(Cl)cc2)cc1`, the TGI falls from greater than 100 µM to 56.3 µM.
